In PMC4079055 (The New England journal of medicine, 2014):
Read-outs that look alike come from different tables or passages of the source.

How the values were obtained:
clinical = conditions: human, in vivo
[1] = Phase 1 study of oral ceritinib: safety, dose-limiting toxic events, MTD; type: in vivo
[2] = system: ALK-rearranged NSCLC xenograft; conditions: crizotinib-sensitive and crizotinib-resistant tumors; cited from earlier work
ALK-rearranged NSCLC = assay: Phase 1 study: antitumor activity; type: in vivo, human
ALK = conditions: enzymatic assays; cited from earlier work
MET = conditions: cited from earlier work
[3] = cited from earlier work
[4] = at least 400 mg daily, 114 patients with NSCLC

In the case of `Cc1cc(Nc2ncc(Cl)c(Nc3ccccc3S(=O)(=O)C(C)C)n2)c(OC(C)C)cc1C1CCNCC1` [Ceritinib], the “Day by which steady-state levels were achieved” value (clinical) is reported as about 15 days, the “Increase in Cmax in relation to dose” value (clinical) is reported as “slightly greater than proportional to the dose” and the half-life (clinical; 750 mg) is reported as about 40 h. The “Mean (±SD) area under the plasma concentration–time curve over a 24-hour period” value (clinical; po) was 16,500±4750 ng per milliliter per hour, the “Mean Cmax” value (clinical; po) was 800±205 ng per milliliter and the “Time at which Cmax was achieved after receipt of the dose” value (clinical; po, 750 mg) was “approximately 6 hours”. The Treatment-related deaths ([1]; all 130 patients) was “No treatment-related deaths occurred”, the “Any event, grade 3 or 4, suspected to be related” value ([1]; human, in vivo) was 64 (49) number of patients with event (percent) and the “Diarrhea, grade 3 or 4, suspected to be related” value ([1]; human, in vivo) was 9 (7) number of patients with event (percent). The Dose-limiting toxic events ([1]; human, in vivo) was “diarrhea (at a daily dose of ≥600 mg), vomiting (at 750 mg daily), nausea (at 750 mg daily), dehydration (at 600 mg daily), elevated alanine aminotransferase level (at 400 mg daily), and hypophosphatemia (at 400 mg daily)”, the “Elevated alanine aminotransferase level, grade 3 or 4, suspected to be related” value ([1]; human, in vivo) was 27 (21) number of patients with event (percent) and the “Elevated amylase level, grade 3 or 4, suspected to be related” value ([1]; human, in vivo) was 3 (2) number of patients with event (percent). For the same compound, the “Elevated aspartate aminotransferase level, grade 3 or 4, suspected to be related” value ([1]; human, in vivo) was 14 (11) number of patients with event (percent), the “Elevated blood alkaline phosphatase level, grade 3 or 4, suspected to be related” value ([1]; human, in vivo) was 3 (2) number of patients with event (percent) and the “Elevated lipase level, grade 3 or 4, suspected to be related” value ([1]; human, in vivo) was 9 (7) number of patients with event (percent). The “Fatigue, grade 3 or 4, suspected to be related” value ([1]; human, in vivo) was 6 (5) number of patients with event (percent), the “Hyperglycemia, grade 3 or 4, suspected to be related” value ([1]; human, in vivo) was 3 (2) number of patients with event (percent) and the “Hypophosphatemia, grade 3 or 4, suspected to be related” value ([1]; human, in vivo) was 4 (3) number of patients with event (percent). The “Incidence of grade 3 or 4 nausea” value ([1]; human, in vivo) was 5%, the “Median duration of treatment interruption” value ([1]; human, in vivo) was 7.3 days and the “Nausea, grade 3 or 4, suspected to be related” value ([1]; human, in vivo) was 7 (5) number of patients with event (percent). The “Study drug permanently discontinued owing to an adverse event” value ([1]; human, in vivo) was 6%, the “Vomiting, grade 3 or 4, suspected to be related” value ([1]; human, in vivo) was 6 (5) number of patients with event (percent) and the “Cases of interstitial lung disease possibly related to therapy” value ([1]; in vivo) was “four”. The Dose-limiting toxic events ([1]; in vivo) was “diarrhea, vomiting, dehydration, elevated aminotransferase levels, and hypophosphatemia”, the “Maximum tolerated dose (MTD)” value ([1]; oral, once daily, dose-escalation phase, 59 patients) was 750 mg daily and the “Antitumor activity in xenograft models” value [2] was “marked antitumor activity”. The Overall response rate (ALK-rearranged NSCLC; 750 mg daily, 78 patients with NSCLC, 95% CI 47 to 70) was 59%, the “Tumor regression by molecular status” value (ALK-rearranged NSCLC; 19 crizotinib-resistant patients with repeat biopsy) was “Tumor regression was observed in all the patients” and the Median progression-free survival (ALK-rearranged NSCLC; 50 patients without central nervous system metastases, ≥400 mg daily) was 7.0 months. For the same compound, the “Patients with confirmed partial response” value (ALK-rearranged NSCLC; 50 to 300 mg daily, 8 patients with NSCLC) was 2 patients, the Median progression-free survival (ALK-rearranged NSCLC; 64 patients with central nervous system metastases at baseline, ≥400 mg daily) was 6.9 months and the “Median duration of response” value (ALK-rearranged NSCLC; 66 responders, at least 400 mg daily, 95% CI 6.9 to 11.4) was 8.2 months. For the same compound, the “Patients with duration of response of 6 months or longer” value (ALK-rearranged NSCLC; 66 responders, at least 400 mg daily, 95% CI 50 to 74) was 64%, the Median progression-free survival (ALK-rearranged NSCLC; 80 patients who had previously received crizotinib, 400 to 750 mg daily, 95% CI 5.3 to 8.8) was 6.9 months and the Median progression-free survival (ALK-rearranged NSCLC; 114 patients with NSCLC, at least 400 mg daily, 95% CI 5.6 to 9.5) was 7.0 months. For the same compound, the Confirmed complete response (ALK-rearranged NSCLC; [4]) was 1%, the Confirmed partial response (ALK-rearranged NSCLC; [4]) was 57% and the “Progressive disease on the first restaging scans” value (ALK-rearranged NSCLC; [4]) was 11%. The Stable disease (ALK-rearranged NSCLC; [4]) was 22%, the Overall response rate (ALK-rearranged NSCLC; at least 400 mg daily, 114 patients with NSCLC, 95% CI 48 to 67) was 58% and the Median overall survival (ALK-rearranged NSCLC; data immature, 72% censored) was “had not been reached”. The Overall response rate (ALK-rearranged NSCLC; no previous crizotinib, at least 400 mg daily, 34 patients, 95% CI 44 to 78) was 62%, the “Patients with confirmed responses” value (ALK-rearranged NSCLC; of 7 crizotinib-resistant patients with ALK gene amplification or mutation) was 6 patients and the “Patients with confirmed responses” value (ALK-rearranged NSCLC; of 12 crizotinib-resistant patients without ALK alteration) was 7 patients. The “Reduction in tumor burden on computed tomographic scans” value (ALK-rearranged NSCLC; one patient with crizotinib-resistant disease, after 6 weeks of treatment) was 52%, the “Responses in untreated central nervous system lesions” value (ALK-rearranged NSCLC; patients who had received crizotinib previously) was “responses were seen in untreated lesions in the central nervous system” and the Overall response rate (ALK-rearranged NSCLC; previously treated with crizotinib, 400 mg or more daily, 80 patients, 95% CI 45 to 67) was 56%. For the same compound, the Overall response rate (ALK-rearranged NSCLC; previously treated with crizotinib, 750 mg daily, 50 patients, 95% CI 41 to 70) was 56%, the “Potency against ALK relative to crizotinib” value (ALK) was 20 times and the “Inhibition of the kinase activity of MET” value (MET) was “does not inhibit”.

In the case of `C[C@@H](Oc1cc(-c2cnn(C3CCNCC3)c2)cnc1N)c1c(Cl)ccc(F)c1Cl` [crizotinib], the “Incidence of grade 3 or 4 nausea” value [3] is listed as 1% and the “Patients with drug-related diarrhea of grade 3 or 4” value ([3]; of 321 patients) is listed as 0 patients.
